Assay results published in the Kinase Knowledgebase extract (Sharma et al. 2016).

Target: MAPK14 (human) (UniProt Q16539)
Experiment: Inhibition of MAPK14 Kinase Activity by PHAS-I Assay
Settings: for inhibition: concentration not given here

Chain of MAPK14 (human) (Q16539 whole entry, looked up): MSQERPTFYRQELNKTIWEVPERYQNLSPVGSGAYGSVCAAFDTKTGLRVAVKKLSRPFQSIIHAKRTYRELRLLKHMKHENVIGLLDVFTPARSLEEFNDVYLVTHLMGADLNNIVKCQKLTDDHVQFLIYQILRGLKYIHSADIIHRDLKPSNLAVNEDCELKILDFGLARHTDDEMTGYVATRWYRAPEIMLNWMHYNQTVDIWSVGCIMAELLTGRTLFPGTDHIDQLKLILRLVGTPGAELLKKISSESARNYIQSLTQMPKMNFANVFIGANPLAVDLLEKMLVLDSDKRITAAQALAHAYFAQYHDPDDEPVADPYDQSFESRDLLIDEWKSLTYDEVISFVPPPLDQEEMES

| inhibition [%] | IC50 [nM] | SMILES |
| --- | --- | --- |
| 94 | – | Cc1c(-c2ccncc2)c(-c2ccc(F)cc2)nn1CC(=O)Nc1ccccc1C(C)C |
| 78 | – | Cc1c(-c2ccncc2)c(-c2ccc(F)cc2)nn1CC(=O)N1CCSC1c1ccco1 (stereo not given) |
| – | 14000 | O=C(Nc1ccccc1F)N[C@@H](Cc1ccccc1)c1[nH]nc(-c2ccc(F)cc2)c1-c1ccncc1 |
| – | 910 | C[C@@H](NC(=O)NCc1[nH]nc(-c2ccc(F)cc2)c1-c1ccncc1)c1ccccc1 |
| 74 | – | Cc1c(-c2ccncc2)c(-c2ccc(F)cc2)nn1CC(=O)N[C@@H](C)c1cccc2ccccc12 |
| 81 | – | O=C(NCCCc1[nH]nc(-c2ccc(F)cc2)c1-c1ccncc1)Nc1ccccc1 |
| 78 | – | Cc1c(-c2ccncc2)c(-c2ccc(F)cc2)nn1CC(=O)N1CCCCC1 |
| 92 | – | COc1cccc(CC(=O)NCCCc2[nH]nc(-c3ccc(F)cc3)c2-c2ccncc2)c1 |
| 81 | – | CC(=O)N1CCN(C(=O)Cn2nc(-c3ccc(F)cc3)c(-c3ccncc3)c2C)CC1 |
| 87 | – | Cc1c(-c2ccncc2)c(-c2ccc(F)cc2)nn1CC(=O)Nc1ccc(-n2ccc(C(F)(F)F)n2)cc1 |
| 85 | – | Cc1c(-c2ccncc2)c(-c2ccc(F)cc2)nn1CC(=O)Nc1ccccc1 |
| – | 110 | Clc1ccc(-c2n[nH]c(SCOC3CCCCO3)c2-c2ccncc2)cc1 (stereo not given) |
| 73 | – | Cc1c(-c2ccncc2)c(-c2ccc(F)cc2)nn1CC(=O)N1CCCC1 |
| 81 | – | Cc1c(-c2ccncc2)c(-c2ccc(F)cc2)nn1CC(=O)Nc1ccc(C(F)(F)F)cc1 |
| 68 | – | O=C(NCCCc1[nH]nc(-c2ccc(F)cc2)c1-c1ccncc1)c1cnc2ccccc2n1 |
| 75 | – | Cc1c(-c2ccncc2)c(-c2ccc(F)cc2)nn1CC(=O)Nc1cc(F)cc(F)c1 |
| 80 | – | O=C(NCCCc1[nH]nc(-c2ccc(F)cc2)c1-c1ccncc1)c1ccno1 |
| 75 | – | CC(C)COC(=O)NCCc1[nH]nc(-c2ccc(F)cc2)c1-c1ccncc1 |
| 92 | – | Cc1c(-c2ccncc2)c(-c2ccc(F)cc2)nn1CC(=O)Nc1ccccc1Cc1ccccc1 |
| 65 | – | CCN1CCN(C(=O)Cn2nc(-c3ccc(F)cc3)c(-c3ccncc3)c2C)CC1 |
| 77 | – | O=C(NCCCc1[nH]nc(-c2ccc(F)cc2)c1-c1ccncc1)C1CC1 |
| 86 | – | C=CCOC(=O)NCCc1[nH]nc(-c2ccc(F)cc2)c1-c1ccncc1 |
| 88 | – | Cc1c(-c2ccncc2)c(-c2ccc(F)cc2)nn1CC(=O)Nc1ccc(Cl)cc1 |
| 78 | – | O=C(NCCCc1[nH]nc(-c2ccc(F)cc2)c1-c1ccncc1)c1ccccc1 |

| inhibition [%] | IC50 [nM] | SMILES |
| --- | --- | --- |
| – | 280 | O=S(=O)(NCc1[nH]nc(-c2ccc(F)cc2)c1-c1ccncc1)c1ccc2ccccc2c1 |
| 17 | – | CCCN(CCC)CC(C)NC(=O)Cn1nc(-c2ccc(F)cc2)c(-c2ccncc2)c1C (stereo not given) |
| 46 | – | CCN(CC)CC(C)NC(=O)Cn1nc(-c2ccc(F)cc2)c(-c2ccncc2)c1C (stereo not given) |
| 87 | – | Cc1c(-c2ccncc2)c(-c2ccc(F)cc2)nn1CC(=O)Nc1ccccc1C(=O)NC1CCCCC1 |
| 68 | – | COc1cccc(NC(=O)NCCc2[nH]nc(-c3ccc(F)cc3)c2-c2ccncc2)c1 |
| 85 | – | COc1ccc(OC)c(NC(=O)Cn2nc(-c3ccc(F)cc3)c(-c3ccncc3)c2C)c1 |
| 88 | – | Cc1c(-c2ccncc2)c(-c2ccc(F)cc2)nn1CC(=O)Nc1ccccc1C(=O)OC(C)C |
| 34 | – | Cc1c(-c2ccncc2)c(-c2ccc(F)cc2)nn1CC(=O)NCC(=O)OC(C)(C)C |
| 76 | – | CN(C(=O)NCCCc1[nH]nc(-c2ccc(F)cc2)c1-c1ccncc1)c1ccccc1 |
| 76 | – | CC(C)COC(=O)NCCCc1[nH]nc(-c2ccc(F)cc2)c1-c1ccncc1 |
| 73 | – | Cc1c(-c2ccncc2)c(-c2ccc(F)cc2)nn1CC(=O)N(C)Cc1ccccc1 |
| 66 | – | O=C(NCCCc1[nH]nc(-c2ccc(F)cc2)c1-c1ccncc1)c1ccc(I)cc1 |
| 88 | – | Cc1cccc(C)c1NC(=O)NCCCc1[nH]nc(-c2ccc(F)cc2)c1-c1ccncc1 |
| 82 | – | Cc1c(-c2ccncc2)c(-c2ccc(F)cc2)nn1CC(=O)Nc1cccc(SC(F)(F)F)c1 |
| 82 | – | O=C(NCCCc1[nH]nc(-c2ccc(F)cc2)c1-c1ccncc1)N1CCOCC1 |
| 72 | – | CCOC(=O)N1CCC(NC(=O)Cn2nc(-c3ccc(F)cc3)c(-c3ccncc3)c2C)CC1 |
| 80 | – | CCCCCCOc1ccc(NC(=O)Cn2nc(-c3ccc(F)cc3)c(-c3ccncc3)c2C)cc1 |
| 84 | – | CS(=O)(=O)NCCCc1[nH]nc(-c2ccc(F)cc2)c1-c1ccncc1 |
| 80 | – | O=C(NCCCc1[nH]nc(-c2ccc(F)cc2)c1-c1ccncc1)c1ccc(F)c(F)c1F |
| 78 | – | COCC(=O)NCCCc1[nH]nc(-c2ccc(F)cc2)c1-c1ccncc1 |
| 68 | – | COc1ccccc1C(=O)NCCCc1[nH]nc(-c2ccc(F)cc2)c1-c1ccncc1 |
| 66 | – | O=C(NCCCc1[nH]nc(-c2ccc(F)cc2)c1-c1ccncc1)c1ccccc1I |
| 45 | – | Cc1c(-c2ccncc2)c(-c2ccc(F)cc2)nn1CC(=O)NC1CCCCC1C1CCCCC1 (stereo not given) |
| 63 | – | Cc1c(-c2ccncc2)c(-c2ccc(F)cc2)nn1CC(=O)N1CCSC1 |

| inhibition [%] | IC50 [nM] | SMILES |
| --- | --- | --- |
| 85 | – | O=C(NCCc1[nH]nc(-c2ccc(F)cc2)c1-c1ccncc1)C1CC1 |
| 33 | – | Cc1c(-c2ccncc2)c(-c2ccc(F)cc2)nn1CC(=O)N1Cc2ccsc2CC1c1ccc(Cl)cc1 (stereo not given) |
| – | 530 | CC1CCCCN1CCCNc1cc(-c2c[nH]nc2-c2ccc(F)cc2)ccn1 (stereo not given) |
| 75 | – | Cc1c(-c2ccncc2)c(-c2ccc(F)cc2)nn1CC(=O)Nc1ccc(OCCOc2ccccc2)cc1 |
| 74 | – | CC(=O)OC(C)(C)C(=O)NCCCc1[nH]nc(-c2ccc(F)cc2)c1-c1ccncc1 |
| 90 | – | NC(=O)NCCCc1[nH]nc(-c2ccc(F)cc2)c1-c1ccncc1 |
| 89 | – | CCNC(=O)NCCCc1[nH]nc(-c2ccc(F)cc2)c1-c1ccncc1 |
| 90 | – | O=C(Cc1cccs1)NCCCc1[nH]nc(-c2ccc(F)cc2)c1-c1ccncc1 |
| 77 | – | CCCC(CCC)NC(=O)Cn1nc(-c2ccc(F)cc2)c(-c2ccncc2)c1C |
| 79 | – | CC(C)C(=O)NCCCc1[nH]nc(-c2ccc(F)cc2)c1-c1ccncc1 |
| 84 | – | Cc1ccc(C)c(C(=O)c2ccccc2NC(=O)Cn2nc(-c3ccc(F)cc3)c(-c3ccncc3)c2C)c1 |
| 91 | – | O=C(NCc1[nH]nc(-c2ccc(F)cc2)c1-c1ccncc1)c1cccc2ccccc12 |
| 37 | – | CCOC(=O)C[C@H](NC(=O)Cn1nc(-c2ccc(F)cc2)c(-c2ccncc2)c1C)C(=O)OCC |
| 63 | – | COCCN(CC1CCCCC1)C(=O)Cn1nc(-c2ccc(F)cc2)c(-c2ccncc2)c1C |
| 49 | – | Cc1c(-c2ccncc2)c(-c2ccc(F)cc2)nn1CC(=O)NC1CCCCC1 |
| 35 | – | Cc1c(-c2ccncc2)c(-c2ccc(F)cc2)nn1CC(=O)NC(C)CCc1ccccc1 (stereo not given) |
| 47 | – | CCN1CC(NC(=O)Cn2nc(-c3ccc(F)cc3)c(-c3ccncc3)c2C)CN1CC |
| – | 460 | CC(=O)N[C@@H](C)c1[nH]nc(-c2ccc(F)cc2)c1-c1ccncc1 |
| 84 | – | CNC(=O)NCCCc1[nH]nc(-c2ccc(F)cc2)c1-c1ccncc1 |
| 77 | – | O=S(=O)(NCc1[nH]nc(-c2ccc(F)cc2)c1-c1ccncc1)c1cc(Br)c(Br)s1 |
| 71 | – | Cc1c(-c2ccncc2)c(-c2ccc(F)cc2)nn1CC(=O)NC(C)c1ccc(Br)cc1 (stereo not given) |
| – | 77 | COCC(=O)N[C@H]1CC[C@@H](c2[nH]nc(-c3ccc(Cl)cc3)c2-c2ccncc2)CC1 |
| 90 | – | CCCOC(=O)NCCCc1[nH]nc(-c2ccc(F)cc2)c1-c1ccncc1 |
| 86 | – | Cc1cccc(NC(=O)Cn2nc(-c3ccc(F)cc3)c(-c3ccncc3)c2C)c1 |

| inhibition [%] | IC50 [nM] | SMILES |
| --- | --- | --- |
| 86 | – | Cc1c(-c2ccncc2)c(-c2ccc(F)cc2)nn1CC(=O)Nc1ccccc1C(=O)NC(C)c1ccccc1 (stereo not given) |
| 81 | – | O=C(NCCCc1[nH]nc(-c2ccc(F)cc2)c1-c1ccncc1)[C@H]1CCCN1 |
| 81 | – | CC(C)NC(=O)NCCCc1[nH]nc(-c2ccc(F)cc2)c1-c1ccncc1 |
| 70 | – | CCc1cccc(CC)c1NC(=O)Cn1nc(-c2ccc(F)cc2)c(-c2ccncc2)c1C |
| 38 | – | Cc1c(-c2ccncc2)c(-c2ccc(F)cc2)nn1CC(=O)N(C)CCc1ccncc1 |
| 87 | – | CCCCS(=O)(=O)NCCCc1[nH]nc(-c2ccc(F)cc2)c1-c1ccncc1 |
| 87 | – | C=CCNC(=O)NCCCc1[nH]nc(-c2ccc(F)cc2)c1-c1ccncc1 |
| 73 | – | O=S(=O)(NCc1[nH]nc(-c2ccc(F)cc2)c1-c1ccncc1)c1cccc2cccnc12 |
| 70 | – | Cc1c(-c2ccncc2)c(-c2ccc(F)cc2)nn1CC(=O)NC1CCN(Cc2ccccc2)CC1 |
| – | 38100 | O=C(N[C@H](Cc1ccccc1)c1[nH]nc(-c2ccc(F)cc2)c1-c1ccncc1)c1cnc2ccccc2n1 |
| 38 | – | Cc1c(-c2ccncc2)c(-c2ccc(F)cc2)nn1CC(=O)NC1CCC(C(C)(C)C)CC1 (stereo not given) |
| 71 | – | COc1ccc(S(=O)(=O)NCCCc2[nH]nc(-c3ccc(F)cc3)c2-c2ccncc2)cc1 |
| 60 | – | COCC(C)NC(=O)Cn1nc(-c2ccc(F)cc2)c(-c2ccncc2)c1C (stereo not given) |
| 83 | – | COc1ccc(NC(=O)NCCCc2[nH]nc(-c3ccc(F)cc3)c2-c2ccncc2)c(OC)c1 |
| 82 | – | COC(=O)C(NC(=O)Cn1nc(-c2ccc(F)cc2)c(-c2ccncc2)c1C)C(C)C (stereo not given) |
| 68 | – | Cc1ccc(S(=O)(=O)NCCCc2[nH]nc(-c3ccc(F)cc3)c2-c2ccncc2)cc1 |
| 72 | – | COc1ccc(CCN(CCC#N)C(=O)Cn2nc(-c3ccc(F)cc3)c(-c3ccncc3)c2C)cc1OC |
| 90 | – | Cc1c(-c2ccncc2)c(-c2ccc(F)cc2)nn1CC(=O)Nc1ccccc1Cl |
| 66 | – | CC(=O)Nc1ccc(S(=O)(=O)NCc2[nH]nc(-c3ccc(F)cc3)c2-c2ccncc2)cc1 |
| 88 | – | Cc1c(-c2ccncc2)c(-c2ccc(F)cc2)nn1CC(=O)Nc1cccc(Br)c1 |
| – | > 100000 | CCOC(=O)N1CCC(Nc2n[nH]c(-c3ccc(Cl)cc3)c2-c2ccncc2)CC1 |
| – | 21000 | O=C(Nc1ccccc1F)N[C@H](Cc1ccccc1)c1[nH]nc(-c2ccc(F)cc2)c1-c1ccncc1 |
| 89 | – | CCN(CC)C(=O)NCCCc1[nH]nc(-c2ccc(F)cc2)c1-c1ccncc1 |
